# Results from patent publication US8394848B2, “Compounds that modulate intracellular calcium” (Calcimedica, Inc., priority 2008, dated 2013).
# Tested on: JR251 or RBL cells
# Assay: Store-operated calcium entry, either JR251 or RBL cells, or both
# Type: cell-based
# Method in brief: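 FLIPR calcium-entry readout in fluo-4-loaded cells held in Ca2+-free HBSS before calcium add-back. For RBL-2H3, store depletion used thapsigargin for 25 min after a 5 min compound pre-incubation, and IC50 was based on the 7 s Upslope. For Orai1/STIM1 stable cells, compound was pre-incubated 30 min and IC50 was based on Peak-Basal.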
row,SMILES,IC50
1,O=C(Nc1scc(-c2ccc(Br)cc2)c1C(=O)O)OCc1ccccc1 [2-(benzyloxycarbonylamino)-4-(4-bromophenyl)thiophene-3-carboxylic acid],< 10 µM
2,O=C(Nc1scc(-c2ccc(Cl)cc2)c1C(=O)O)OCc1ccccc1 [2-(benzyloxycarbonylamino)-4-(4-chlorophenyl)thiophene-3-carboxylic acid],< 10 µM
3,"O=C(O)c1c(-c2ccc(Cl)cc2Cl)csc1NC(=O)C1CC1 [2-(cyclopropanecarboxamido)-4-(2,4-dichlorophenyl)thiophene-3-carboxylic acid]",< 10 µM
4,"O=C(O)c1c(-c2ccc(Cl)c(Cl)c2)csc1NC(=O)C1CC1 [2-(cyclopropanecarboxamido)-4-(3,4-dichlorophenyl)thiophene-3-carboxylic acid]",< 10 µM
5,Cc1ccc(-c2csc(NC(=O)c3ccc4ccccc4n3)c2C(=O)O)cc1 [2-(quinoline-2-carboxamido)-4-p-tolylthiophene-3-carboxylic acid],< 10 µM
6,O=C(Nc1scc(-c2ccc(C(F)(F)F)cc2)c1C(=O)O)c1cccs1 [2-(thiophene-2-carboxamido)-4-(4-(trifluoromethyl)phenyl)thiophene-3-carboxylic acid],< 10 µM
7,"Cc1ccc(-c2csc(NC(=O)c3nc4c(F)cccc4o3)c2C(=O)O)c(F)c1F [4-(2,3-difluoro-4-methylphenyl)-2-(4-fluorobenzo[d]oxazole-2-carboxamido)thiophene-3-carboxylic acid]",< 10 µM
8,"Cc1ccc(-c2csc(NC(=O)c3nc4c(F)cccc4s3)c2C(=O)O)c(F)c1F [4-(2,3-difluoro-4-methylphenyl)-2-(4-fluorobenzo[d]thiazole-2-carboxamido)thiophene-3-carboxylic acid]",< 10 µM
9,"Cc1ccc(-c2csc(NC(=O)c3cc4c(F)cccc4o3)c2C(=O)O)c(F)c1F [4-(2,3-difluoro-4-methylphenyl)-2-(4-fluorobenzofuran-2-carboxamido)thiophene-3-carboxylic acid]",< 10 µM
10,"Cc1ccc(-c2csc(NC(=O)c3cc4c(F)cccn4n3)c2C(=O)O)c(F)c1F [4-(2,3-difluoro-4-methylphenyl)-2-(4-fluoropyrazolo[1,5-a]pyridine-2-carboxamido)thiophene-3-carboxylic acid]",< 10 µM
11,"Cc1ccc(-c2csc(NC(=O)c3nc4cc(F)c(F)cc4o3)c2C(=O)O)c(F)c1F [4-(2,3-difluoro-4-methylphenyl)-2-(5,6-difluorobenzo[d]oxazole-2-carboxamido)thiophene-3-carboxylic acid]",< 10 µM
12,"Cc1ccc(-c2csc(NC(=O)c3nc4cc(F)ccc4o3)c2C(=O)O)c(F)c1F [4-(2,3-difluoro-4-methylphenyl)-2-(5-fluorobenzo[d]oxazole-2-carboxamido)thiophene-3-carboxylic acid]",< 10 µM
13,"COc1ccc2oc(C(=O)Nc3scc(-c4ccc(C)c(F)c4F)c3C(=O)O)nc2c1 [4-(2,3-difluoro-4-methylphenyl)-2-(5-methoxybenzo[d]oxazole-2-carboxamido)thiophene-3-carboxylic acid]",< 10 µM
14,"Cc1ccc(-c2csc(NC(=O)c3nc4ccc(F)cc4o3)c2C(=O)O)c(F)c1F [4-(2,3-difluoro-4-methylphenyl)-2-(6-fluorobenzo[d]oxazole-2-carboxamido)thiophene-3-carboxylic acid]",< 10 µM
15,"Cc1ccc(-c2csc(NC(=O)c3nc4cccc(F)c4o3)c2C(=O)O)c(F)c1F [4-(2,3-difluoro-4-methylphenyl)-2-(7-fluorobenzo[d]oxazole-2-carboxamido)thiophene-3-carboxylic acid]",< 10 µM
16,"O=C(CCc1ccccc1)Nc1scc(-c2cc(F)c(Cl)cc2Cl)c1C(=O)O [4-(2,4-dichloro-5-fluorophenyl)-2-(3-phenylpropanamido)thiophene-3-carboxylic acid]",< 10 µM
17,"COc1cccc(CC(=O)Nc2scc(-c3ccc(Cl)c(Cl)c3)c2C(=O)O)c1 [4-(3,4-dichlorophenyl)-2-(2-(3-methoxyphenyl)acetamido)thiophene-3-carboxylic acid]",< 10 µM
18,"O=C(CCc1ccccc1)Nc1scc(-c2ccc(Cl)c(Cl)c2)c1C(=O)O [4-(3,4-dichlorophenyl)-2-(3-phenylpropanamido)thiophene-3-carboxylic acid]",< 10 µM
19,"O=C(O)c1c(-c2ccc(Br)cc2)csc1NC(=O)C1CCc2ccccc2C1 (centres unmarked) [4-(4-bromophenyl)-2-(1,2,3,4-tetrahydronaphthalene-2-carboxamido)thiophene-3-carboxylic acid]",< 10 µM
20,"Cc1nn(C)c2sc(C(=O)Nc3scc(-c4ccc(Br)cc4)c3C(=O)O)cc12 [4-(4-bromophenyl)-2-(1,3-dimethyl-1H-thieno[2,3-c]pyrazole-5-carboxamido)thiophene-3-carboxylic acid]",< 10 µM
21,"O=C(O)c1c(-c2ccc(Br)cc2)csc1NC(=O)C1Cc2ccccc2C1 [4-(4-bromophenyl)-2-(2,3-dihydro-1H-indene-2-carboxamido)thiophene-3-carboxylic acid]",< 10 µM
22,O=C(CSc1ccccc1)Nc1scc(-c2ccc(Br)cc2)c1C(=O)O [4-(4-bromophenyl)-2-(2-(phenylthio)acetamido)thiophene-3-carboxylic acid],< 10 µM
23,CC(C(=O)Nc1scc(-c2ccc(Br)cc2)c1C(=O)O)C(C)c1ccccc1 (centres unmarked) [4-(4-bromophenyl)-2-(2-methyl-3-phenylbutanamido)thiophene-3-carboxylic acid],< 10 µM

# Now from value to compound:
row,IC50,SMILES
1,< 10 µM,Cc1ccc(-c2csc(NC(=O)c3cccs3)c2C(=O)O)cc1 [2-(thiophene-2-carboxamido)-4-p-tolylthiophene-3-carboxylic acid]
2,< 10 µM,Cc1ccc(-c2csc(NC(=O)c3ccsc3)c2C(=O)O)cc1 [2-(thiophene-3-carboxamido)-4-p-tolylthiophene-3-carboxylic acid]
3,< 10 µM,"Cc1ccc(-c2csc(NC(=O)c3cc4cccc(O)c4o3)c2C(=O)O)c(F)c1F [4-(2,3-difluoro-4-methylphenyl)-2-(7-hydroxybenzofuran-2-carboxamido)thiophene-3-carboxylic acid]"
4,< 10 µM,"Cc1ccc(-c2csc(NC(=O)c3cn4ccsc4n3)c2C(=O)O)c(F)c1F [4-(2,3-difluoro-4-methylphenyl)-2-(imidazo[2,1-b]thiazole-6-carboxamido)thiophene-3-carboxylic acid]"
5,< 10 µM,"Cc1ccc(-c2csc(NC(=O)c3cc4ccccn4n3)c2C(=O)O)c(F)c1F [4-(2,3-difluoro-4-methylphenyl)-2-(pyrazolo[1,5-a]pyridine-2-carboxamido)thiophene-3-carboxylic acid]"
6,< 10 µM,"Cc1ccc(-c2csc(NC(=O)c3cnc4ccccc4n3)c2C(=O)O)c(F)c1F [4-(2,3-difluoro-4-methylphenyl)-2-(quinoxaline-2-carboxamido)thiophene-3-carboxylic acid]"
7,< 10 µM,"Cc1ccc(-c2csc(NC(=O)c3cc4sccc4s3)c2C(=O)O)c(F)c1F [4-(2,3-difluoro-4-methylphenyl)-2-(thieno[3,2-b]thiophene-2-carboxamido)thiophene-3-carboxylic acid]"
8,< 10 µM,"O=C(CSc1ccccc1)Nc1scc(-c2ccc(Cl)cc2Cl)c1C(=O)O [4-(2,4-dichlorophenyl)-2-(2-(phenylthio)acetamido)thiophene-3-carboxylic acid]"
9,< 10 µM,"O=C(CCc1ccccc1)Nc1scc(-c2ccc(Cl)cc2Cl)c1C(=O)O [4-(2,4-dichlorophenyl)-2-(3-phenylpropanamido)thiophene-3-carboxylic acid]"
10,< 10 µM,O=C(CSc1ccccc1)Nc1scc(-c2ccccc2Br)c1C(=O)O [4-(2-bromophenyl)-2-(2-(phenylthio)acetamido)thiophene-3-carboxylic acid]
11,< 10 µM,Cc1ccsc1C(=O)Nc1scc(-c2ccccc2Br)c1C(=O)O [4-(2-bromophenyl)-2-(3-methylthiophene-2-carboxamido)thiophene-3-carboxylic acid]
12,< 10 µM,O=C(O)c1c(-c2ccccc2Br)csc1NC(=O)C1CC1 [4-(2-bromophenyl)-2-(cyclopropanecarboxamido)thiophene-3-carboxylic acid]
13,< 10 µM,O=C(Nc1scc(-c2ccccc2Br)c1C(=O)O)c1cccs1 [4-(2-bromophenyl)-2-(thiophene-2-carboxamido)thiophene-3-carboxylic acid]
14,< 10 µM,"O=C(Nc1scc(-c2ccc(Cl)c(Cl)c2)c1C(=O)O)c1ccsc1 [4-(3,4-dichlorophenyl)-2-(thiophene-3-carboxamido)thiophene-3-carboxylic acid]"
15,< 10 µM,"Cc1ccc(-c2csc(NC(=O)c3sccc3C)c2C(=O)O)cc1C [4-(3,4-dimethylphenyl)-2-(3-methylthiophene-2-carboxamido)thiophene-3-carboxylic acid]"
16,< 10 µM,"Cc1ccc(-c2csc(NC(=O)c3ccsc3)c2C(=O)O)cc1C [4-(3,4-dimethylphenyl)-2-(thiophene-3-carboxamido)thiophene-3-carboxylic acid]"
17,< 10 µM,Cc1ccsc1C(=O)Nc1scc(-c2cccc(Cl)c2)c1C(=O)O [4-(3-chlorophenyl)-2-(3-methylthiophene-2-carboxamido)thiophene-3-carboxylic acid]
18,< 10 µM,O=C(Nc1scc(-c2cccc(Cl)c2)c1C(=O)O)c1ccsc1 [4-(3-chlorophenyl)-2-(thiophene-3-carboxamido)thiophene-3-carboxylic acid]
19,< 10 µM,Cn1cnc(C(=O)Nc2scc(-c3ccc(Br)cc3)c2C(=O)O)c1 [4-(4-bromophenyl)-2-(1-methyl-1H-imidazole-4-carboxamido)thiophene-3-carboxylic acid]
20,< 10 µM,"O=C(O)c1c(-c2ccc(Br)cc2)csc1NC(=O)C1Cc2ccccc2O1 (centres unmarked) [4-(4-bromophenyl)-2-(2,3-dihydrobenzofuran-2-carboxamido)thiophene-3-carboxylic acid]"
21,< 10 µM,Cc1cc(C(=O)Nc2scc(-c3ccc(Br)cc3)c2C(=O)O)cc(O)n1 [4-(4-bromophenyl)-2-(2-hydroxy-6-methylisonicotinamido)thiophene-3-carboxylic acid]
